Where “and” joins values, the source holds several entries; their conditions need not be identical. Equal values may be shown once.
Columns and labels:
[1] = Oxygen radical absorbance capacity assay (ORAC-FL); conditions: for ORAC: ORAC-FL, Trolox equivalents
Experimental: The antioxidant activity of KTs was determined using the ORAC-FL method described by Dávalos et al.[30] using fluorescein as a fluorescent probe with minor modification. Briefly, fluorescein and antioxidant were incubated in a black 96-well microplate (Nunc) for 15 min at 37 °C. The 2,2’-azobis(amidinopropane) dihydrochloride (AAPH) was then added quickly using the built-in injector of Varioskan Flash plate reader (Thermo Scientific).
Results are expressed in the Trolox equivalents (TE) unit in relation to radical scavenging properties of Trolox.

SH-SY5Y cells [2] = experiment: Neuroprotection against oligomycin/rotenone-induced cell death (MTT); assay type: cell-based, human; conditions: O 10 µM / R 30 µM
Experimental: (§1) SH-SY5Y cell culture and treatment with compounds 2b–d and 2f. The cultures of human SH-SY5Y neuroblastoma cells kept under a CO2/air (5%/95%) humidified atmosphere at 37 °C for 24 h were treated with 100 µl of the test compounds or DMSO (0.1%) in DMEM/F12 (1:1) medium supplemented with 1% fetal bovine serum, 1X non-essential amino acids, 100 units/ml penicillin and 10 mg/ml streptomycin. Treatment medium was renewed every day for up to 48 h of treatment. MTT assay was then performed.
(§2) SH-SY5Y cells were seeded in 96-well culture plates at a density of 8 × 10^4 cells per well in DMEM/F12 (1:1) medium supplemented with 10% fetal bovine serum, 1X non-essential amino acids, 100 units/mL penicillin and 10 mg/mL streptomycin (Dutscher, France). After 24 h of incubation, the cultures were treated with 100 µl of the test compounds or DMSO (0.1%) in the same medium. Following 24 h, the cells were co-incubated with oligomycin A (10 µM)/rotenone (30 µM) (Sigma, France) or Aβ 1–40 (30 µM) with or without the tested compounds 2b–d and 2f at nontoxic concentrations against cells for an additional period of 24 h. MTT assay was then performed to determine the % of cell viability.
(§3) The ability to prevent the human neuroblastoma cell line SH-SY5Y cell death induced by toxic insults such as Αβ 1–40, implicated in ROS production and apoptosis-related signalling pathways, and oligomycin/rotenone (O/R)[39], was then assayed to determine the neuroprotective capacity of the four less hepatotoxic KTs 2b–d and 2f at nontoxic concentration against SH-SY5Y 3 and 10 µM, using melatonin and KA as reference molecules. For the evaluation of the neuroprotective effect, the cytotoxicity of O/R (10 µM/30 µM) on SH-SY5Y cell viability was determined as well as the toxicity of the selected KTs 2b–d and 2f at.

SH-SY5Y cells [3] = experiment: Neuroprotection against Aβ1–40 peptide-induced cell death (MTT); assay type: cell-based, human; conditions: for Aβ1–40 (%) neuroprotection: Aβ 1–40 30 µM
Experimental: as §1, §2, §3

SH-SY5Y cells [4] = experiment: Neuroprotection against oligomycin/rotenone-induced cell death (MTT); assay type: cell-based, human; conditions: compound 1 µM; O 10 µM / R 30 µM
SH-SY5Y cells [5] = experiment: Neuroprotection against Aβ1–40 peptide-induced cell death (MTT); assay type: cell-based, human; conditions: compound 1 µM; Aβ 1–40 30 µM
in vitro = assay type: cell-based; conditions: human, HepG2 cells, percent of cell viability vs DMSO-treated control, read-out: HepG2 cell viability
Experimental: (§4) The culture medium was refreshed after 24 h of incubation and 100 µl of six different concentrations (1–1000 µM) of test compounds or DMSO (0.1%) were then added. The cell viability was monitored by colourimetric assay with 3-[4,5-dimethylthiazol-2-yl]-2,5-diphenyl-tetrazolium bromide (MTT).
(§5) In this sense, all new KTs were submitted to the in vitro cell viability test (MTT assay) using human hepatocellular carcinoma cell line (HepG2)[26], as the most accepted probe to evaluate hepatotoxic effects. For this experiment, six different concentrations from 1 to 1000 µM were used.

HepG2 cells = experiment: in vitro; assay type: cell-based; conditions: at 1000 µM
Experimental: as §4, §5

EeAChE = EeAChE (Electrophorus electricus, UniProt O42275); experiment: biochemical
Chain of EeAChE (O42275 24-633): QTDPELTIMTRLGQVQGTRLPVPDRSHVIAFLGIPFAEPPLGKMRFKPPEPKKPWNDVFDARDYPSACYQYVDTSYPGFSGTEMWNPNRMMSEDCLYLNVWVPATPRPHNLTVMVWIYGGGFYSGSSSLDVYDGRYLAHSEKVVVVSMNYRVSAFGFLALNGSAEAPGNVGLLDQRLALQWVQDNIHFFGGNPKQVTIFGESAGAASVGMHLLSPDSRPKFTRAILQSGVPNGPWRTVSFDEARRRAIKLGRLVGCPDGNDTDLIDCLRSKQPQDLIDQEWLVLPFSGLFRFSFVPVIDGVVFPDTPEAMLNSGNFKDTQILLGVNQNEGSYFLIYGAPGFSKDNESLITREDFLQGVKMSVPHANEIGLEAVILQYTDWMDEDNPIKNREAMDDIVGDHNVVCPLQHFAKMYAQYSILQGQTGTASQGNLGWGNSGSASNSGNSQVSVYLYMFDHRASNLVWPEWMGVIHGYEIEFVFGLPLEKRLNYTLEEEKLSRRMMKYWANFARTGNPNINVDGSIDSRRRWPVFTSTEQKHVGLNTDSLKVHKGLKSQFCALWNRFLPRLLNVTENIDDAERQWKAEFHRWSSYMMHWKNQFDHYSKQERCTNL
Experimental: (§6) Ellman’s protocol was followed to perform the anticholinesterasic activity. Briefly, the reaction was carried out in a final volume of 3 ml of a phosphate-buffered solution (0.1 M) at pH =8.0 containing (2.625 µl, 0.35 mM) of 5,5’-dithiobis-2-nitrobenzoic acid (DTNB), 40 µl 1% w/v Bovine Albumin Serum phosphate-buffered solution (BSA), (29 µl, 0.035 U/ml) of EeAChE or (60 µl, 0.05 U/ml) of eqBuChE, and 3 µl of tested compound, which were incubated for 10 min. Then, the acetylthiocholine iodide or butyrylthiocholine was added, and the reaction was incubated for additional 15 min. The activity in absence of compound was used as control.

eqBuChE = target: T1, eqBuChE (Equus caballus, UniProt P81908); experiment: biochemical; conditions: at 10 μM; Table 2 footnote b
T1 construct: serum horse BuChE (eqBuChE); from tissue; host or cells: horse serum
T1 sequence (P81908 whole entry): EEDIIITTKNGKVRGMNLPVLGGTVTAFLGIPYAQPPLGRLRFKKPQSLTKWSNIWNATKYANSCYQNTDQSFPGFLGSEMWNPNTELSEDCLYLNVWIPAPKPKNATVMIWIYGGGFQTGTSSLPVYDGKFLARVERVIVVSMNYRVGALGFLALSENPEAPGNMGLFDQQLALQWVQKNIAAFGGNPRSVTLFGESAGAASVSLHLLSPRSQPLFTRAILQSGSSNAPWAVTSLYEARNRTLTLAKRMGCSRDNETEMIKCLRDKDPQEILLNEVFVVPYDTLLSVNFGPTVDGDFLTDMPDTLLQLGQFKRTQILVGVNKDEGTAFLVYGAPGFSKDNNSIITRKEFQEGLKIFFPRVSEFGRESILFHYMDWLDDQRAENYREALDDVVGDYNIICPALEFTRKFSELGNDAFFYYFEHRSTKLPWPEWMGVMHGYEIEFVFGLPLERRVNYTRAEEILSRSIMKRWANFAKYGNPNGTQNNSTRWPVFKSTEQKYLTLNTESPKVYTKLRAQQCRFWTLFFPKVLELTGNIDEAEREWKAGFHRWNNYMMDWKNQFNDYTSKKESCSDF
Experimental: as §6

hAChE = target: T2, hAChE (Homo sapiens, UniProt P22303); experiment: biochemical; conditions: mean ± SEM
T2 construct: 10 µl of cholinesterase obtained from human erythrocyte hemolyzate, out of blood samples; from tissue; host or cells: human erythrocyte hemolysate from blood samples
T2 sequence (P22303 32-617 isoform P22303-2 limits assumed): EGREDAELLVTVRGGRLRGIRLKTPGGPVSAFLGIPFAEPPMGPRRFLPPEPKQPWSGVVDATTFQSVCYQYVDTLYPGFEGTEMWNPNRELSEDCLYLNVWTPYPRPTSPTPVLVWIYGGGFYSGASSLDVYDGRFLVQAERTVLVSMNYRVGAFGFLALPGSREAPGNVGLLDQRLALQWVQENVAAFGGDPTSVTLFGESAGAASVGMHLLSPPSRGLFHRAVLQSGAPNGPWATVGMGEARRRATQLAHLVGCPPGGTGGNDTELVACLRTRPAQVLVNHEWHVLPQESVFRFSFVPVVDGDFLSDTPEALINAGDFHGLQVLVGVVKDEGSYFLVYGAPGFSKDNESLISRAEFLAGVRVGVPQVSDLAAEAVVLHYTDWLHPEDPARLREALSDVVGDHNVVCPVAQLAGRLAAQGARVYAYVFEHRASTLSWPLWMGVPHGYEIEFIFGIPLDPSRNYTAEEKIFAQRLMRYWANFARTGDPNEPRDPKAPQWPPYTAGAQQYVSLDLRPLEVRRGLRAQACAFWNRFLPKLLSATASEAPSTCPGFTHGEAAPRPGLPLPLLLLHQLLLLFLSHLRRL
Experimental: This blend was preincubated for 5 min and 20 µl of 0.01 M substrate (ATCh or BTCh) was added to initiate the reaction. […] The IC50 values are expressed as a mean ± SEM.
Next, as planned at the beginning of the project, the analysis of the antioxidant capacity of KT 2a–d, 2f–h, and 2l was carried out.

SH-SY5Y cells [6] = experiment: Toxicity of compounds on SH-SY5Y cells (MTT); assay type: cell-based; conditions: at 10 µM
Experimental: as §1

O=c1cc(CO)occ1O [KA, kojic acid, reference compound]
ORAC [1]: 2.51 TE and 2.51 ± 0.17 TE
O/R (%) neuroprotection (SH-SY5Y cells [2]; compound 3 µM): np
Aβ1–40 (%) neuroprotection (SH-SY5Y cells [3]; compound 3 µM): 65.11 ± 0.20 %
O/R (%) neuroprotection (SH-SY5Y cells [4]): np
Aβ1–40 (%) neuroprotection (SH-SY5Y cells [5]): 51.56 ± 0.18 %

COc1cccc(C2c3oc(CO)cc(=O)c3Oc3nc4c(c(N)c32)CCCC4)c1 (centres unmarked) [KT2d, 11-amino-2-(hydroxymethyl)-12-(3-methoxyphenyl)-7,9,10,12-tetrahydropyrano [2',3':5,6] pyrano[2,3-b]quinolin-4(8H)-one]
viability at 1 µM (in vitro; 1 µM): 101 ± 2.5%
viability at 3 µM (in vitro; 3 µM): 98 ± 4.1%
viability at 10 µM (in vitro; 10 µM): 102 ± 3.2%
viability at 30 µM (in vitro; 30 µM): 102 ± 1.8%
viability at 100 µM (in vitro; 100 µM): 99 ± 1.1%
viability at 300 µM (in vitro; 300 µM): 87.2 ± 6.1%
viability at 1000 µM (in vitro; 1000 µM): 65.5 ± 1.3%
fold less toxic than tacrine (HepG2) (HepG2 cells): six-fold less-hepatotoxic than tacrine
IC50 (EeAChE; mean ± SEM): 640 ± 60 nM
fold less active than tacrine (EeAChE) (EeAChE; ratio of IC50 values vs tacrine): approximately 20 fold
inhibition at 10 µM (eqBuChE): < 50%
IC50 (hAChE): 4.52 ± 0.24 µM
ORAC [1]: 4.79 TE
ORAC ([1]; listed as 2d): 4.79±0.39 TE
fold more potent than FA (ORAC) ([1]; vs ferulic acid): 1.3 fold
O/R (%) neuroprotection (SH-SY5Y cells [2]; compound 3 µM): 24.35 ± 0.05 %
O/R (%) neuroprotection (SH-SY5Y cells [2]; compound 10 µM): 12.53 ± 0.09%
neuroprotection against Aβ 1–40 (SH-SY5Y cells [3]; at 3 µM and 10 µM): significant and similar neuroprotection
Aβ1–40 (%) neuroprotection (SH-SY5Y cells [3]; compound 3 µM): 42.92 ± 0.20 %
Aβ1–40 (%) neuroprotection (SH-SY5Y cells [3]; compound 10 µM): 41.19 ± 0.18 %
toxicity for SH-SY5Y cells (SH-SY5Y cells [6]): nontoxic
